PubChem BioAssay AID330 (DTP/NCI, 2004)
“And” between values parts separate entries of the source, which are not always exact repeats. Equal values may be shown once. Toxic doses and inconclusive results are not listed. How the source made its calls: active means survival T/C of 150% or more; inactive means T/C below 125% in these data.

System: P388 leukemia ip, CD2F1 mice, survival T/C
Assay: NCI In Vivo Anticancer Drug Screen. Data for tumor model P388 Leukemia (intraperitoneal) in CD2F1 (CDF1) mice
Conditions: endpoint: median survival time, higher = longer survival
In short: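 Mice carrying the transplanted tumor received test compound or vehicle. Survival was recorded in each group, and the value is the treated-group measurement divided by that of the vehicle-treated control group.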

[1] = dose: 100.0 mg/kg/injection, schedule: Q04DX002 (ip), vehicle: Klucel (hydroxypropylcellulose) (HPC)
[2] = dose: 50.0 mg/kg/injection, schedule: Q01DX009 (ip), vehicle: saline with Tween-80
[3] = dose: 100.0 mg/kg/injection, schedule: Q01DX009 (ip), vehicle: saline with Tween-80
[4] = dose: 200.0 mg/kg/injection, schedule: Q01DX009 (ip), vehicle: saline with Tween-80
[5] = dose: 25.0 mg/kg/injection, schedule: Q01DX005 (ip), vehicle: Klucel (hydroxypropylcellulose) (HPC)
[6] = dose: 50.0 mg/kg/injection, schedule: Q01DX005 (ip), vehicle: Klucel (hydroxypropylcellulose) (HPC)
[7] = dose: 100.0 mg/kg/injection, schedule: Q01DX005 (ip), vehicle: Klucel (hydroxypropylcellulose) (HPC)
[8] = dose: 50.0 mg/kg/injection, schedule: Q01DX009 (ip), vehicle: saline
[9] = dose: 100.0 mg/kg/injection, schedule: Q01DX009 (ip), vehicle: saline
[10] = dose: 200.0 mg/kg/injection, schedule: Q01DX009 (ip), vehicle: saline
[11] = dose: 200.0 mg/kg/injection, schedule: Q01DX005 (ip), vehicle: Klucel (hydroxypropylcellulose) (HPC)
[12] = dose: 12.5 mg/kg/injection, schedule: Q01DX009 (ip), vehicle: Klucel (hydroxypropylcellulose) (HPC)
[13] = dose: 60.0 mg/kg/injection, schedule: Q01DX005 (ip), vehicle: saline with Tween-80
[14] = dose: 120.0 mg/kg/injection, schedule: Q01DX005 (ip), vehicle: saline with Tween-80
[15] = dose: 240.0 mg/kg/injection, schedule: Q01DX005 (ip), vehicle: saline with Tween-80
[16] = dose: 50.0 mg/kg/injection, schedule: Q01DX005 (ip), vehicle: saline with Tween-80
[17] = dose: 60.0 mg/kg/injection, schedule: Q01DX005 (ip), vehicle: saline
[18] = dose: 120.0 mg/kg/injection, schedule: Q01DX005 (ip), vehicle: saline
[19] = dose: 100.0 mg/kg/injection, schedule: Q01DX005 (ip), vehicle: saline with Tween-80
[20] = dose: 200.0 mg/kg/injection, schedule: Q01DX005 (ip), vehicle: saline with Tween-80
[21] = dose: 60.0 mg/kg/injection, schedule: Q01DX005 (ip), vehicle: Klucel (hydroxypropylcellulose) (HPC)

Measured: T/C

CC(=O)OC(C)C1CC2C=C(C(N)=O)C1N(Cc1ccccc1)C2 (stereo not drawn)
inactive: dose: 8.75 mg/kg/injection, schedule: Q01DX005 (ip), vehicle: Klucel (hydroxypropylcellulose) (HPC) 97 % of control | dose: 17.5 mg/kg/injection, schedule: Q01DX005 (ip), vehicle: Klucel (hydroxypropylcellulose) (HPC) 93 % of control | dose: 35.0 mg/kg/injection, schedule: Q01DX005 (ip), vehicle: Klucel (hydroxypropylcellulose) (HPC) 97 % of control

CC1CC(c2ccccc2)C(c2ccccc2Cl)C(=O)O1 (stereo not drawn)
inactive: [1] 101 % of control | dose: 200.0 mg/kg/injection, schedule: Q04DX002 (ip), vehicle: Klucel (hydroxypropylcellulose) (HPC) 96 % of control | dose: 400.0 mg/kg/injection, schedule: Q04DX002 (ip), vehicle: Klucel (hydroxypropylcellulose) (HPC) 96 % of control

CC(CN=C(CC(=O)c1ccccc1)c1ccccc1)N=C(CC(=O)c1ccccc1)c1ccccc1 (stereo not drawn)
inactive: [2] 104 % of control | [3] 103 % of control | [4] 97 % of control

COc1cc(C2c3cc4c(cc3C(=O)C(C)C2C)OCO4)ccc1O (stereo not drawn)
inactive: [5] 98 % of control | [6] 98 % of control | [7] 102 % of control | dose: 150.0 mg/kg/injection, schedule: Q01DX005 (ip), vehicle: Klucel (hydroxypropylcellulose) (HPC) 86 % of control

O=S(=O)(Cl)C(F)(F)C(F)(F)F
inactive: [8] 100 % of control | [9] 110 % of control | [10] 103 % of control

CC(Nc1cccc(Cl)c1)S(=O)(=O)O (stereo not drawn)
inactive: [8] 100 % of control | [9] 100 % of control | [10] 94 % of control

COC(=O)C1C2c3ccccc3C(c3ccccc32)C1(C)C(=O)OC (stereo not drawn)
inactive: [6] 96 % of control | [7] 102 % of control | [11] 102 % of control

CCSC(=Nc1nc2ccc(NC(C)=O)cc2s1)SCC
inactive: dose: 6.25 mg/kg/injection, schedule: Q01DX009 (ip), vehicle: Klucel (hydroxypropylcellulose) (HPC) 97 % of control | [12] 101 % of control | dose: 25.0 mg/kg/injection, schedule: Q01DX009 (ip), vehicle: Klucel (hydroxypropylcellulose) (HPC) 98 % of control

CCOC(=O)CN=Cc1ccccc1
inactive: [13] 107 % of control | [14] 108 % of control | [15] 107 % of control

COC1NC(=S)N(Cc2ccccc2)C1(C)C (stereo not drawn)
inactive: dose: 50.0 mg/kg/injection, schedule: Q01DX009 (ip), vehicle: suspension in saline 102 % of control | dose: 100.0 mg/kg/injection, schedule: Q01DX009 (ip), vehicle: suspension in saline 97 % of control | dose: 200.0 mg/kg/injection, schedule: Q01DX009 (ip), vehicle: suspension in saline 93 % of control

N#Cc1nnc2cccc(Cl)n12
inactive: dose: 25.0 mg/kg/injection, schedule: Q01DX001 (ip), vehicle: Klucel (hydroxypropylcellulose) (HPC) 96 % of control | dose: 50.0 mg/kg/injection, schedule: Q01DX001 (ip), vehicle: Klucel (hydroxypropylcellulose) (HPC) 95 % of control | dose: 100.0 mg/kg/injection, schedule: Q01DX001 (ip), vehicle: Klucel (hydroxypropylcellulose) (HPC) 97 % of control

CCOC(=O)c1cc(-c2ccccc2)c(=O)c(OC)nc1-c1ccccc1
inactive: dose: 25.0 mg/kg/injection, schedule: Q01DX005 (ip), vehicle: saline with Tween-80 108 % of control | [16] 118 % of control

Cc1nc(SCC(=O)O)n[nH]1
inactive: [2] 103 % of control | [3] 103 % of control | [4] 101 % of control

CCNc1ccc(C(=O)c2cccc(N)c2)cc1N
inactive: [13] 96 % of control | [14] 96 % of control | [15] 89 % of control

CCOC(=O)/N=C1/CCCC(=O)C1O (stereo not drawn)
inactive: [5] 102 % of control | [6] 103 % of control | [7] 93 % of control | [11] 101 % of control

Cc1c(O)c(=O)ccn1CCN
inactive: dose: 50.0 mg/kg/injection, schedule: Q01DX005 (ip), vehicle: saline 98 % of control and 102 % of control | dose: 100.0 mg/kg/injection, schedule: Q01DX005 (ip), vehicle: saline 100 % of control and 109 % of control | dose: 200.0 mg/kg/injection, schedule: Q01DX005 (ip), vehicle: saline 99 % of control and 104 % of control | dose: 400.0 mg/kg/injection, schedule: Q01DX005 (ip), vehicle: saline 91 % of control and 95 % of control

O=C1OC(C2OC(=O)C(=O)C2C(=O)c2ccc(Cl)c(Cl)c2)C(C(=O)c2ccc(Cl)c(Cl)c2)C1=O (stereo not drawn)
inactive: [17] 100 % of control | [18] 96 % of control | dose: 240.0 mg/kg/injection, schedule: Q01DX005 (ip), vehicle: saline 90 % of control

CC(=O)Oc1cccnc1[N+](=O)[O-]
inactive: dose: 12.5 mg/kg/injection, schedule: Q01DX009 (ip), vehicle: saline 103 % of control and 106 % of control | dose: 25.0 mg/kg/injection, schedule: Q01DX009 (ip), vehicle: saline 100 % of control and 101 % of control | [8] 102 % of control and 120 % of control and 94 % of control | [9] 106 % of control and 108 % of control and 123 % of control | [10] 105 % of control and 119 % of control | dose: 400.0 mg/kg/injection, schedule: Q01DX009 (ip), vehicle: saline 105 % of control

Nc1cc(-c2ccc(Cl)cc2)nn1-c1nnc(-c2ccccc2)c(-c2ccccc2)n1
inactive: [16] 93 % of control | [19] 100 % of control | [20] 103 % of control

COC1CC(C)C(OC)C2=CC(=O)C=C(NC(=O)/C(C)=C/C=C\C(C)C(OC(N)=O)/C(C)=C\C(C)C1OC)C2=O (stereo not drawn)
inactive: dose: 5.0 mg/kg/injection, schedule: Q01DX009 (ip), vehicle: saline + alcohol 121 % of control | dose: 10.0 mg/kg/injection, schedule: Q01DX009 (ip), vehicle: saline + alcohol 123 % of control | dose: 20.0 mg/kg/injection, schedule: Q01DX009 (ip), vehicle: saline + alcohol 86 % of control

COc1ccc2c(c1)OC(C)(C)c1c-2n(C)c2c(F)cccc2c1=O
inactive: [21] 100 % of control | dose: 120.0 mg/kg/injection, schedule: Q01DX005 (ip), vehicle: Klucel (hydroxypropylcellulose) (HPC) 101 % of control | dose: 240.0 mg/kg/injection, schedule: Q01DX005 (ip), vehicle: Klucel (hydroxypropylcellulose) (HPC) 101 % of control

CCN(CC)c1cc(C)c(Cc2c(OC)ccc3ccccc23)cc1C
inactive: [6] 92 % of control | [7] 92 % of control | [11] 99 % of control

O=C(O)C(=Cc1cccc2ccccc12)C(=O)O
inactive: [5] 89 % of control | [6] 100 % of control | [7] 89 % of control

NC(=S)N/N=C/C=C/c1ccccc1
inactive: dose: 25.0 mg/kg/injection, schedule: Q04DX002 (ip), vehicle: Klucel (hydroxypropylcellulose) (HPC) 96 % of control | dose: 50.0 mg/kg/injection, schedule: Q04DX002 (ip), vehicle: Klucel (hydroxypropylcellulose) (HPC) 105 % of control | [1] 101 % of control

C[Si](C)(C)O[C@@H]1CCCC1N (stereo partly drawn)
inactive: [13] 106 % of control | [14] 97 % of control | [15] 105 % of control

CCCCC(CCC)(CCN)CCCC
inactive: dose: 3.0 mg/kg/injection, schedule: Q01DX009 (ip), vehicle: saline 95 % of control | dose: 6.0 mg/kg/injection, schedule: Q01DX009 (ip), vehicle: saline 100 % of control | dose: 12.0 mg/kg/injection, schedule: Q01DX009 (ip), vehicle: saline 104 % of control

COC1OC(=O)C(Cl)=C1N=[N+]=[N-] (stereo not drawn)
inactive: dose: 15.0 mg/kg/injection, schedule: Q01DX005 (ip), vehicle: Klucel (hydroxypropylcellulose) (HPC) 105 % of control | dose: 30.0 mg/kg/injection, schedule: Q01DX005 (ip), vehicle: Klucel (hydroxypropylcellulose) (HPC) 102 % of control | [21] 109 % of control

Cc1ccc(CN2CC(=O)N3Cc4ccccc4CN3C(=O)C2)cc1
inactive: [16] 103 % of control | [19] 116 % of control | [20] 98 % of control

CCN(CC)C(=O)CC(c1ccccc1)N(C)C (stereo not drawn)
inactive: [17] 98 % of control | [18] 87 % of control

O=C1CC2CCCCC2CC1c1ccc(OCc2ccccc2)c(OCc2ccccc2)c1 (stereo not drawn)
inactive: [2] 91 % of control | [3] 97 % of control | [4] 103 % of control

Cc1onc(-c2c(F)cccc2Cl)c1C(=O)Nc1cc2cc([N+](=O)[O-])ccc2oc1=O
inactive: [13] 95 % of control | [14] 97 % of control | [15] 92 % of control

CCN1CCCC(Nc2cc(C)nc(Nc3nc4cc(Cl)c(Cl)cc4[nH]3)n2)C1 (stereo not drawn)
inactive: [12] 90 % of control
